From ChEMBL document CHEMBL1201862, “PubChem BioAssay data set” (2004)
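Dose response: 5 concentrations. Exposure: 48 h. Format: 96-well plates. Endpoint: linear interpolation; highest concentration if not reached. GI50: concentration for 50% inhibition of growth.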 Activity calls are given as the source filed them. Rule as the data show it: active = GI50 up to about 1.1 µM and inactive = higher.

Assays:
Assay in all cases: inhibition of tumour cell growth, NCI panel, 48 h
[1] = system: 786-0
[2] = system: A498
[3] = system: A549
[4] = system: ACHN
[5] = system: BT-549
[6] = system: CAKI-1
[7] = system: COLO 205
[8] = system: DU-145
[9] = system: EKVX
[10] = system: HCC 2998
[11] = system: HCT-116
[12] = system: HCT-15
[13] = system: HL-60
[14] = system: HOP-62
[15] = system: HOP-92
[16] = system: HT-29
[17] = system: Hs-578T
[18] = system: IGROV-1
[19] = system: K562
[20] = system: KM12
[21] = system: LOX IMVI
[22] = system: M14
[23] = system: MCF7
[24] = system: MDA-MB-231
[25] = system: MDA-MB-435
[26] = system: MDA-N
[27] = system: MOLT-4
[28] = system: Malme-3M
[29] = system: NCI-H226
[30] = system: NCI-H23
[31] = system: NCI-H460
[32] = system: NCI-H522
[33] = system: NCI/ADR-RES
[34] = system: OVCAR-3
[35] = system: OVCAR-4
[36] = system: OVCAR-5
[37] = system: OVCAR-8
[38] = system: PC-3
[39] = system: RPMI-8226
[40] = system: RXF 393
[41] = system: SF-268
[42] = system: SF-295
[43] = system: SF-539
[44] = system: SK-MEL-28
[45] = system: SK-MEL-2
[46] = system: SK-MEL-5
[47] = system: SN12C
[48] = system: SNB-19
[49] = system: SR
[50] = system: SW-620
[51] = system: TK-10
[52] = system: U-251
[53] = system: UACC-257
[54] = system: UACC-62
[55] = system: UO-31
[56] = system: CCRF-CEM
[57] = system: SNB-75

For `COc1ccc(-c2c(C#N)c(N)nc(S)c2C#N)cc1`, the GI50 [1] was 21.1 µM (inactive), the GI50 [2] was > 100 µM (inactive) and the GI50 [3] was 48.4 µM (inactive). For the same compound, the GI50 [4] was 71 µM (inactive), the GI50 [5] was 24.9 µM (inactive) and the GI50 [6] was 42.4 µM (inactive). For the same compound, the GI50 [7] was 30.1 µM (inactive), the GI50 [8] was 34.8 µM (inactive) and the GI50 [9] was 36.1 µM (inactive). For the same compound, the GI50 [10] was 23.4 µM (inactive), the GI50 [11] was 29.4 µM (inactive) and the GI50 [12] was 33.3 µM. For the same compound, the GI50 [13] was 23.1 µM (inactive), the GI50 [14] was 55.1 µM (inactive) and the GI50 [15] was 40.6 µM (inactive). The GI50 [16] was 48.6 µM (inactive), the GI50 [17] was 19.1 µM (inactive) and the GI50 [18] was 24.7 µM (inactive). The GI50 [19] was 26.5 µM (inactive), the GI50 [20] was 41.8 µM (inactive) and the GI50 [21] was 43.5 µM (inactive). For the same compound, the GI50 [22] was 30 µM (inactive), the GI50 [23] was 39.2 µM (inactive) and the GI50 [24] was 26.1 µM (inactive). For the same compound, the GI50 [25] was 17.3 µM (inactive), the GI50 [26] was 11.5 µM (inactive) and the GI50 [27] was 17.1 µM (inactive). For the same compound, the GI50 [28] was 29.9 µM (inactive), the GI50 [29] was 21.1 µM (inactive) and the GI50 [30] was 38.3 µM (inactive). The GI50 [31] was 31 µM (inactive), the GI50 [32] was 20.5 µM (inactive) and the GI50 [33] was 50 µM (inactive). The GI50 [34] was 64.7 µM (inactive), the GI50 [35] was > 100 µM (inactive) and the GI50 [36] was > 100 µM (inactive). The GI50 [37] was 36.7 µM (inactive), the GI50 [38] was 27.5 µM (inactive) and the GI50 [39] was 21.5 µM (inactive). The GI50 [40] was 33.2 µM (inactive), the GI50 [41] was 30.7 µM (inactive) and the GI50 [42] was 27.6 µM (inactive). The GI50 [43] was 38.9 µM (inactive), the GI50 [44] was 37.7 µM (inactive) and the GI50 [45] was 36.1 µM (inactive). The GI50 [46] was 26.2 µM (inactive), the GI50 [47] was 29.1 µM (inactive) and the GI50 [48] was 57.7 µM (inactive). For the same compound, the GI50 [49] was 18.3 µM (inactive), the GI50 [50] was 22.2 µM (inactive) and the GI50 [51] was 71.3 µM (inactive). The GI50 [52] was 40.5 µM (inactive), the GI50 [53] was 44.6 µM (inactive) and the GI50 [54] was 41.5 µM (inactive). The GI50 [55] was 34.9 µM (inactive).
For `CN(C)Cc1cc(C=O)cc(CN(C)C)c1O`, the GI50 [1] was > 100 µM (inactive), the GI50 [2] was > 100 µM (inactive) and the GI50 [3] was > 100 µM (inactive). For the same compound, the GI50 [4] was > 100 µM (inactive), the GI50 [5] was > 100 µM (inactive) and the GI50 [56] was > 100 µM (inactive). For the same compound, the GI50 [7] was > 100 µM (inactive), the GI50 [8] was > 100 µM (inactive) and the GI50 [9] was > 100 µM (inactive). For the same compound, the GI50 [10] was > 100 µM (inactive), the GI50 [11] was > 100 µM (inactive) and the GI50 [12] was greater than 100 µM. For the same compound, the GI50 [13] was > 100 µM (inactive), the GI50 [14] was > 100 µM (inactive) and the GI50 [15] was > 100 µM (inactive). The GI50 [16] was > 100 µM (inactive), the GI50 [17] was > 100 µM (inactive) and the GI50 [18] was > 100 µM (inactive). For the same compound, the GI50 [19] was > 100 µM (inactive), the GI50 [20] was > 100 µM (inactive) and the GI50 [21] was > 100 µM (inactive). For the same compound, the GI50 [23] was > 100 µM (inactive), the GI50 [24] was > 100 µM (inactive) and the GI50 [25] was > 100 µM (inactive). For the same compound, the GI50 [26] was > 100 µM (inactive), the GI50 [27] was > 100 µM (inactive) and the GI50 [28] was > 100 µM (inactive). For the same compound, the GI50 [29] was > 100 µM (inactive), the GI50 [30] was 26.1 µM (inactive) and the GI50 [31] was > 100 µM (inactive). The GI50 [32] was > 100 µM (inactive), the GI50 [33] was > 100 µM (inactive) and the GI50 [34] was > 100 µM (inactive). The GI50 [35] was > 100 µM (inactive), the GI50 [37] was > 100 µM (inactive) and the GI50 [38] was > 100 µM (inactive). The GI50 [39] was > 100 µM (inactive), the GI50 [40] was > 100 µM (inactive) and the GI50 [41] was > 100 µM (inactive). For the same compound, the GI50 [42] was > 100 µM (inactive), the GI50 [43] was > 100 µM (inactive) and the GI50 [44] was > 100 µM (inactive). For the same compound, the GI50 [46] was > 100 µM (inactive), the GI50 [47] was > 100 µM (inactive) and the GI50 [48] was > 100 µM (inactive). The GI50 [57] was > 100 µM (inactive), the GI50 [49] was > 100 µM (inactive) and the GI50 [50] was > 100 µM (inactive). For the same compound, the GI50 [51] was > 100 µM (inactive), the GI50 [52] was > 100 µM (inactive) and the GI50 [53] was > 100 µM (inactive). The GI50 [55] was > 100 µM (inactive).
With `COC(CN(C(C)=O)C1CCC2(SCCS2)c2[nH]c3ccccc3c21)OC` (stereo not drawn) the GI50 [1] was > 100 µM (inactive), the GI50 [2] was > 100 µM (inactive) and the GI50 [3] was > 100 µM (inactive). The GI50 [4] was > 100 µM (inactive), the GI50 [5] was > 100 µM (inactive) and the GI50 [6] was > 100 µM (inactive). The GI50 [56] was > 100 µM (inactive), the GI50 [7] was > 100 µM (inactive) and the GI50 [8] was > 100 µM (inactive). For the same compound, the GI50 [9] was 72.1 µM (inactive), the GI50 [10] was > 100 µM (inactive) and the GI50 [11] was > 100 µM (inactive). For the same compound, the GI50 [12] was greater than 100 µM, the GI50 [13] was 89.9 µM (inactive) and the GI50 [14] was > 100 µM (inactive). The GI50 [15] was > 100 µM (inactive), the GI50 [16] was > 100 µM (inactive) and the GI50 [17] was 54.6 µM (inactive). For the same compound, the GI50 [18] was > 100 µM (inactive), the GI50 [19] was > 100 µM (inactive) and the GI50 [20] was > 100 µM (inactive). The GI50 [21] was 0.0422 µM (active), the GI50 [22] was > 100 µM (inactive) and the GI50 [23] was > 100 µM (inactive). For the same compound, the GI50 [24] was > 100 µM (inactive), the GI50 [25] was > 100 µM (inactive) and the GI50 [26] was > 100 µM (inactive). For the same compound, the GI50 [27] was 60.8 µM (inactive), the GI50 [28] was > 100 µM (inactive) and the GI50 [29] was > 100 µM (inactive). The GI50 [30] was > 100 µM (inactive), the GI50 [31] was > 100 µM (inactive) and the GI50 [32] was > 100 µM (inactive). For the same compound, the GI50 [33] was > 100 µM (inactive), the GI50 [34] was > 100 µM (inactive) and the GI50 [35] was 62.7 µM (inactive). The GI50 [36] was > 100 µM (inactive), the GI50 [37] was > 100 µM (inactive) and the GI50 [38] was > 100 µM (inactive). The GI50 [39] was > 100 µM (inactive), the GI50 [40] was 38.6 µM (inactive) and the GI50 [41] was > 100 µM (inactive). For the same compound, the GI50 [42] was 0.207 µM (active), the GI50 [43] was > 100 µM (inactive) and the GI50 [44] was > 100 µM (inactive). For the same compound, the GI50 [45] was > 100 µM (inactive), the GI50 [46] was > 100 µM (inactive) and the GI50 [47] was > 100 µM (inactive). For the same compound, the GI50 [48] was > 100 µM (inactive), the GI50 [57] was > 100 µM (inactive) and the GI50 [49] was 57.9 µM (inactive). The GI50 [50] was > 100 µM (inactive), the GI50 [51] was > 100 µM (inactive) and the GI50 [52] was > 100 µM (inactive). For the same compound, the GI50 [53] was 0.773 µM (active) and the GI50 [55] was > 100 µM (inactive).
